Test results as given in ChEMBL document CHEMBL3885861, “Open TG-GATES”.

Species on record: Rattus norvegicus
Assay: Open TG-GATES - Regimen: Daily Repeat
Assay type: toxicity, organism-based, Sprague-Dawley
Parameters: regimen Daily Repeat, gender Male, age 6 weeks
Conditions: in vivo, po, route gavage; for APTT / Bas / Eos / Fbg / Hb / Ht / Lym / MCH / MCHC / MCV / Mono / Neu / PT / Plat / RBC / Ret / WBC: tissue Blood; for KIDNEY_L / KIDNEY_R / KIDNEY_TOTAL: tissue Kidney; for LIVER: tissue Liver; for ALP / ALT / BUN / CRE / Ca / DBIL / GLC / K / LDH / Na / PL / RALB / TBIL / TC / TG / TP / gamma-GTP / AST: tissue Plasma
[1] = 60 mg/kg, 72 h, dose level Middle, time 3 day
[2] = 60 mg/kg, […], dose level Middle, time 7 day
[3] = 60 mg/kg, […], dose level Middle, time 14 day
[4] = 60 mg/kg, […], dose level Middle, time 28 day
[5] = 200 mg/kg, 72 h, dose level High, time 3 day
[6] = 200 mg/kg, […], dose level High, time 7 day
[7] = 200 mg/kg, […], dose level High, time 14 day
[8] = 200 mg/kg, […], dose level High, time 28 day

CCCCc1oc2ccccc2c1C(=O)c1cc(I)c(OCCN(CC)CC)c(I)c1 [AMIODARONE]
TERMINAL_BW [1]: 226.1 g
APTT [1]: 18.2 s
Bas [1]: 0%
Eos [1]: 1.2%
Fbg [1]: 225.8 mg/dL
Hb [1]: 13.5 g/dL
Ht [1]: 39.6%
Lym [1]: 79.2%
MCH [1]: 21.1 pg
MCHC [1]: 34.1%
MCV [1]: 62.1 fL
Mono [1]: 2.6%
Neu [1]: 15.8%
PT [1]: 12.8 s
Plat [1]: 127.1 x10_4/uL
RBC [1]: 637.8 x10_4/ul
Ret [1]: 5.5%
WBC [1]: 99.3 x10_2/uL
KIDNEY_L [1]: 1 g
KIDNEY_R [1]: 1 g
KIDNEY_TOTAL [1]: 2.1 g
LIVER [1]: 11 g
ALP [1]: 1120.2 IU/L
ALT [1]: 37.8 IU/L
BUN [1]: 16 mg/dL
CRE [1]: 0.3 mg/dL
Ca [1]: 10.7 mg/dL
DBIL [1]: 0.096 mg/dL
GLC [1]: 196.6 mg/dL
K [1]: 3.8 meq/L
LDH [1]: 194.6 IU/L
Na [1]: 140.8 meq/L
PL [1]: 147 mg/dL
RALB [1]: 3.4 g/dL
TBIL [1]: 0.1 mg/dL
TC [1]: 73.8 mg/dL
TG [1]: 101.8 mg/dL
TP [1]: 5.5 g/dL
gamma-GTP [1]: 1 IU/L
TERMINAL_BW [2]: 259.8 g
TERMINAL_BW [3]: 302.6 g
TERMINAL_BW [4]: 385.9 g
APTT [2]: 17.9 s
Bas [2]: 0%
Eos [2]: 1%
Fbg [2]: 216.8 mg/dL
Hb [2]: 13 g/dL
Lym [2]: 76.2%
MCH [2]: 20.9 pg
MCHC [2]: 34.1%
Mono [2]: 3.2%
Neu [2]: 18.6%
PT [2]: 12.3 s
Plat [2]: 132.6 x10_4/uL
RBC [2]: 622.6 x10_4/ul
Ret [2]: 5.4%
WBC [2]: 103.2 x10_2/uL
APTT [3]: 20.8 s
Bas [3]: 0%
Eos [3]: 0.4%
Fbg [3]: 214.4 mg/dL
Hb [3]: 14.4 g/dL
Ht [3]: 41.1%
Lym [3]: 79%
MCH [3]: 20.9 pg
MCHC [3]: 35%
MCV [3]: 59.7 fL
Mono [3]: 2.2%
Neu [3]: 17.4%
Plat [3]: 115.4 x10_4/uL
RBC [3]: 688.2 x10_4/ul
Ret [3]: 4.3%
WBC [3]: 115.1 x10_2/uL
APTT [4]: 20.6 s
Bas [4]: 0%
Eos [4]: 1%
Fbg [4]: 218.6 mg/dL
Ht [4]: 42.1%
Lym [4]: 78.2%
MCH [4]: 19.7 pg
MCHC [4]: 35%
MCV [4]: 56.3 fL
Mono [4]: 2.6%
Neu [4]: 17%
Plat [4]: 111.2 x10_4/uL
RBC [4]: 748.8 x10_4/ul
Ret [4]: 2.8%
WBC [4]: 115.2 x10_2/uL
KIDNEY_L [2]: 1.2 g
KIDNEY_R [2]: 1.1 g
KIDNEY_TOTAL [2]: 2.3 g
KIDNEY_L [3]: 1.2 g
KIDNEY_R [3]: 1.2 g
KIDNEY_TOTAL [3]: 2.3 g
KIDNEY_L [4]: 1.3 g
KIDNEY_R [4]: 1.3 g
KIDNEY_TOTAL [4]: 2.7 g
LIVER [3]: 13.8 g
LIVER [4]: 16.9 g
ALP [2]: 981 IU/L
ALT [2]: 34.8 IU/L
AST [2]: 60 IU/L
BUN [2]: 17.4 mg/dL
CRE [2]: 0.3 mg/dL
Ca [2]: 10.5 mg/dL
DBIL [2]: 0.1 mg/dL
GLC [2]: 208 mg/dL
K [2]: 4 meq/L
LDH [2]: 174.8 IU/L
Na [2]: 140.2 meq/L
PL [2]: 166.8 mg/dL
RALB [2]: 3.3 g/dL
TBIL [2]: 0.2 mg/dL
TC [2]: 90.8 mg/dL
TG [2]: 98.6 mg/dL
TP [2]: 5.5 g/dL
gamma-GTP [2]: 0.8 IU/L
ALP [3]: 996.2 IU/L
ALT [3]: 41.4 IU/L
AST [3]: 64.6 IU/L
BUN [3]: 16.6 mg/dL
CRE [3]: 0.4 mg/dL
Ca [3]: 10.6 mg/dL
DBIL [3]: 0.086 mg/dL
GLC [3]: 224.6 mg/dL
K [3]: 3.5 meq/L
LDH [3]: 174.6 IU/L
Na [3]: 140.4 meq/L
PL [3]: 171.6 mg/dL
RALB [3]: 3.4 g/dL
TBIL [3]: 0.1 mg/dL
TC [3]: 90.4 mg/dL
TG [3]: 102 mg/dL
TP [3]: 5.9 g/dL
gamma-GTP [3]: 1.8 IU/L
ALP [4]: 803.2 IU/L
ALT [4]: 34.4 IU/L
AST [4]: 56.4 IU/L
BUN [4]: 18 mg/dL
CRE [4]: 0.5 mg/dL
Ca [4]: 10.4 mg/dL
DBIL [4]: 0.098 mg/dL
GLC [4]: 192.6 mg/dL
K [4]: 3.7 meq/L
LDH [4]: 152.6 IU/L
Na [4]: 141 meq/L
PL [4]: 167.2 mg/dL
RALB [4]: 3.3 g/dL
TBIL [4]: 0.2 mg/dL
TC [4]: 86.6 mg/dL
TG [4]: 120 mg/dL
TP [4]: 6 g/dL
gamma-GTP [4]: 1.6 IU/L
TERMINAL_BW [5]: 204.2 g
APTT [5]: 27.3 s
Bas [5]: 0%
Eos [5]: 1.2%
Fbg [5]: 214.6 mg/dL
Hb [5]: 14.1 g/dL
Ht [5]: 40.9%
Lym [5]: 84.6%
MCH [5]: 20.9 pg
MCHC [5]: 34.4%
MCV [5]: 60.8 fL
Mono [5]: 3.2%
Neu [5]: 9.2%
PT [5]: 15.9 s
Plat [5]: 122.1 x10_4/uL
RBC [5]: 672.8 x10_4/ul
Ret [5]: 3.5%
WBC [5]: 70.5 x10_2/uL
KIDNEY_L [5]: 0.9 g
KIDNEY_R [5]: 0.9 g
KIDNEY_TOTAL [5]: 1.8 g
LIVER [5]: 9 g
ALP [5]: 1623.2 IU/L
BUN [5]: 14.2 mg/dL
CRE [5]: 0.3 mg/dL
Ca [5]: 10 mg/dL
DBIL [5]: 0.062 mg/dL
GLC [5]: 193.2 mg/dL
K [5]: 3.6 meq/L
LDH [5]: 222.2 IU/L
Na [5]: 140.2 meq/L
PL [5]: 181.6 mg/dL
RALB [5]: 3.4 g/dL
TBIL [5]: 0.1 mg/dL
TC [5]: 135 mg/dL
TG [5]: 33.2 mg/dL
TP [5]: 5.7 g/dL
gamma-GTP [5]: 0.8 IU/L
TERMINAL_BW [6]: 210.1 g
TERMINAL_BW [7]: 194.8 g
TERMINAL_BW [8]: 228 g
APTT [6]: 33.7 s
Bas [6]: 0%
Eos [6]: 0.8%
Fbg [6]: 202.2 mg/dL
Hb [6]: 14.6 g/dL
Ht [6]: 41.9%
Lym [6]: 82.8%
MCH [6]: 21.2 pg
MCHC [6]: 34.9%
MCV [6]: 60.7 fL
Mono [6]: 2.6%
Neu [6]: 13.2%
PT [6]: 17.5 s
Plat [6]: 127 x10_4/uL
RBC [6]: 690.2 x10_4/ul
Ret [6]: 1.4%
WBC [6]: 119 x10_2/uL
APTT [7]: 26.9 s
Bas [7]: 0%
Eos [7]: 0.8%
Fbg [7]: 180.2 mg/dL
Hb [7]: 16 g/dL
Ht [7]: 44.7%
Lym [7]: 68%
MCH [7]: 20 pg
MCHC [7]: 35.9%
MCV [7]: 55.6 fL
Mono [7]: 1.6%
Neu [7]: 29.6%
PT [7]: 15 s
Plat [7]: 109.5 x10_4/uL
RBC [7]: 803.6 x10_4/ul
Ret [7]: 0.8%
WBC [7]: 77.9 x10_2/uL
APTT [8]: 27.4 s
Bas [8]: 0%
Eos [8]: 0.8%
Fbg [8]: 215.8 mg/dL
Hb [8]: 15.6 g/dL
Ht [8]: 42.8%
Lym [8]: 64%
MCH [8]: 19 pg
MCHC [8]: 36.4%
MCV [8]: 52.2 fL
Mono [8]: 2%
Neu [8]: 32%
PT [8]: 17 s
Plat [8]: 159.1 x10_4/uL
RBC [8]: 819 x10_4/ul
Ret [8]: 2.1%
WBC [8]: 96 x10_2/uL
KIDNEY_L [6]: 0.9 g
KIDNEY_R [6]: 0.9 g
KIDNEY_TOTAL [6]: 1.9 g
KIDNEY_L [7]: 0.9 g
KIDNEY_R [7]: 0.9 g
KIDNEY_TOTAL [7]: 1.7 g
KIDNEY_L [8]: 0.9 g
KIDNEY_R [8]: 1 g
KIDNEY_TOTAL [8]: 1.9 g
LIVER [6]: 9.6 g
LIVER [7]: 9.1 g
ALP [6]: 1316.2 IU/L
ALT [6]: 31 IU/L
AST [6]: 56.4 IU/L
BUN [6]: 13.6 mg/dL
CRE [6]: 0.4 mg/dL
Ca [6]: 10 mg/dL
DBIL [6]: 0.068 mg/dL
GLC [6]: 184.4 mg/dL
K [6]: 4 meq/L
LDH [6]: 215.6 IU/L
Na [6]: 139.2 meq/L
PL [6]: 182.8 mg/dL
RALB [6]: 3.4 g/dL
TBIL [6]: 0.1 mg/dL
TC [6]: 144.8 mg/dL
TG [6]: 24.6 mg/dL
TP [6]: 5.8 g/dL
gamma-GTP [6]: 1.2 IU/L
ALP [7]: 1457.8 IU/L
ALT [7]: 44.8 IU/L
AST [7]: 59.8 IU/L
BUN [7]: 16.6 mg/dL
CRE [7]: 0.5 mg/dL
Ca [7]: 9.6 mg/dL
DBIL [7]: 0.064 mg/dL
GLC [7]: 200.8 mg/dL
K [7]: 3.6 meq/L
LDH [7]: 176.6 IU/L
Na [7]: 139.4 meq/L
PL [7]: 190.4 mg/dL
RALB [7]: 3.4 g/dL
TBIL [7]: 0.1 mg/dL
TC [7]: 163.4 mg/dL
TP [7]: 5.7 g/dL
gamma-GTP [7]: 1.6 IU/L
ALP [8]: 1315 IU/L
ALT [8]: 39.8 IU/L
AST [8]: 82 IU/L
BUN [8]: 15.5 mg/dL
CRE [8]: 0.5 mg/dL
Ca [8]: 9.4 mg/dL
DBIL [8]: 0.065 mg/dL
GLC [8]: 169 mg/dL
K [8]: 3.9 meq/L
LDH [8]: 184 IU/L
Na [8]: 139.8 meq/L
PL [8]: 177 mg/dL
RALB [8]: 3.3 g/dL
TBIL [8]: 0.1 mg/dL
TC [8]: 127.5 mg/dL
TG [8]: 26.5 mg/dL
TP [8]: 5.8 g/dL
gamma-GTP [8]: 1.2 IU/L
